ChEMBL document CHEMBL1201862, “PubChem BioAssay data set” (2004)
The source made the active and inactive calls.

How the values were obtained:
[1] = P. falciparum late gametocyte killing, dose response, luminescence (AID 1117278); type: functional, cell-based;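 also: gametocytes exposed to compound for 24 hours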
[2] = Jurkat T cell cytotoxicity, dose response, cytotoxicity control for P. falciparum gametocyte viability project, luminescence (AID 1117277); type: functional, cell-based;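 also: potency reflects loss of cellular ATP meaning fewer viable cells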
[3] = M. tuberculosis H37Rv growth inhibitors, H37Rv strain (AID 1626); type: functional
[4] = NIH-3T3 fibroblast cytotoxicity, dose response, cytotoxicity control, cell-based, fluorescence, Alamar Blue, secondary assay (AID 2327); type: functional;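 also: NIH-3T3 mouse fibroblasts cultured with fluconazole at 8 µg/mL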
[5] = target: T1, RNA-binding protein pos-1 (Caenorhabditis elegans, UniProt G5EF15); test: inhibitors of POS-1/mex-3 RNA binding, dose response, biochemical, fluorescence polarization (AID 1964);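 also: purified POS-1 fused to maltose binding protein made in E. coli; potency of compounds blocking POS-1 binding to fluorescent RNA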
T1 sequence (G5EF15 whole entry): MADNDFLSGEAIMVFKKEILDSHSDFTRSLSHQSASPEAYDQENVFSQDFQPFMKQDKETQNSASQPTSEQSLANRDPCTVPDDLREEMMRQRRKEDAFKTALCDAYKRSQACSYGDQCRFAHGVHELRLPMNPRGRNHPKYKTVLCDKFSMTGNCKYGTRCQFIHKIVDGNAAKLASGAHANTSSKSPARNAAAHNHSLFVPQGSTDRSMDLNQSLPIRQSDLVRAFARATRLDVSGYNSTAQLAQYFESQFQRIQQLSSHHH

[6] = target: T2, Zinc finger protein mex-5 (Caenorhabditis elegans, UniProt Q9XUB2); test: MEX-5/TCR-2 RNA interaction inhibitors, dose response, biochemical, C. elegans, fluorescence polarization (AID 1960)
T2 sequence (Q9XUB2 whole entry): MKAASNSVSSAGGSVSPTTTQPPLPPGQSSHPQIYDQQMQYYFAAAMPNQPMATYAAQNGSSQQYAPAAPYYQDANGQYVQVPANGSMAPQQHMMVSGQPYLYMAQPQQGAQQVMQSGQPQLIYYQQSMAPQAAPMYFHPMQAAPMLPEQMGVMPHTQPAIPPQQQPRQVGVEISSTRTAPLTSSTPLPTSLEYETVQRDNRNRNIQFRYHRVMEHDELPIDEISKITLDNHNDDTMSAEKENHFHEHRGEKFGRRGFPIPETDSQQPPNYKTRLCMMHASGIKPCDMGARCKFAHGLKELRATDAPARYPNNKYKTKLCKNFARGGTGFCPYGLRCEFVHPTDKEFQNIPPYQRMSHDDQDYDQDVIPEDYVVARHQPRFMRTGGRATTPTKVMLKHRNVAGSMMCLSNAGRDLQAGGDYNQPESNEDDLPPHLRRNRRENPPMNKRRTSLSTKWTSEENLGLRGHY

[7] = C. albicans growth with fluconazole, confirmation, fluorescence, retest (AID 2467); type: functional, cell-based
[8] = inhibitors of intracellular T. cruzi replication, confirmation, NIH3T3 host cells, beta-gal luminescence (AID 2044); type: functional, cell-based;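 also: intracellular parasites grown in NIH/3T3 mouse fibroblasts as host cells; luminescent beta-galactosidase reporter signal from transgenic T. cruzi replicating inside host cells; inhibitors lower the luminescence signal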
[9] = cytotoxicity toward NIH3T3 fibroblasts, dose response, counter-screen, cell-based, ATP luminescence, mouse fibroblasts (AID 2010); type: functional;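 also: cells exposed to compound for about 90 hours before reading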
[10] = target: T3, Endoribonuclease toxin MazF (Escherichia coli K-12, UniProt P0AE70); test: MazF toxin RNase activators, dose response, biochemical, fluorescence, single-stranded RNA substrate, uHTS hits (AID 588481); type: functional
T3 sequence (P0AE70 whole entry): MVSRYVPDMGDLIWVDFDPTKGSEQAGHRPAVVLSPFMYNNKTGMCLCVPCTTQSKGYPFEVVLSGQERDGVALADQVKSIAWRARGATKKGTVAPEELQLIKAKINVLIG

[11] = target: T3, Endoribonuclease toxin MazF; test: fluorescent RNA oligo signal without MazF, dose response, counter-screen for MazEF activator project, biochemical, fluorescence, single-stranded RNase substrate (AID 588502); type: functional
[12] = target: T4, Corticotropin-releasing factor receptor 2/Corticotropin-releasing factor-binding protein (Homo sapiens, UniProt P24387+Q13324); test: activators of CRF receptor 2 with binding protein – uHTS hits, confirmation (AID 602473); type: functional; settings: read-out: EC50_Mean
T4 sequence (Q13324 whole entry): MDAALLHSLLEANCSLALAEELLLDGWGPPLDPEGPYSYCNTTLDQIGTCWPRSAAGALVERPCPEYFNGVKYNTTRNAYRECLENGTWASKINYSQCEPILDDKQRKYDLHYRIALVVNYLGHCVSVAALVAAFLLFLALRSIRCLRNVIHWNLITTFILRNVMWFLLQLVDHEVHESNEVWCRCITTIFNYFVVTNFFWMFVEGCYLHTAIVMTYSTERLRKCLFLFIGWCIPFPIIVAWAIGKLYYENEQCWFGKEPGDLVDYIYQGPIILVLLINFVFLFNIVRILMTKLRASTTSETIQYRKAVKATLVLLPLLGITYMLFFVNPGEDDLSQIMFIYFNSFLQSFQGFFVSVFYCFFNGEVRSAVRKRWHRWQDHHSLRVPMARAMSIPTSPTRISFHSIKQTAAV
T4 sequence (P24387 whole entry): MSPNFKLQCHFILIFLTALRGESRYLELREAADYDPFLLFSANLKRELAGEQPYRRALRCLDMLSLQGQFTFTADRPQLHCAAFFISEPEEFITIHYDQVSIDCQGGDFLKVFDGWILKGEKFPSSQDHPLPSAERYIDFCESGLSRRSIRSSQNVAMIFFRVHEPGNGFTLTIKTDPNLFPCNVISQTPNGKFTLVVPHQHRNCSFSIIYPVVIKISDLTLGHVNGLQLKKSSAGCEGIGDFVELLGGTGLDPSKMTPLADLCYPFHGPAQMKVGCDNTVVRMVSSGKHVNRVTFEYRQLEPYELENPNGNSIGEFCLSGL

[13] = THP-1 cell cytotoxicity, dose response, cytotoxicity control for Vif-APOBEC3G degradation inhibitor project, THP-1 cells (AID 1117359); type: functional; settings: Human immunodeficiency virus 1, THP-1
[14] = target: Luciferin 4-monooxygenase (Photinus pyralis, UniProt P08659); test: Counter Screen for Luciferase-based Assay Positives. [Related pubchem assays: 620, 618, 411 ]
[15] = system: HT-1080; test: cytotoxicity in HT1080 fibrosarcoma cells, cell-based, fluorescence readout (AID 620); type: functional; settings: Homo sapiens
[16] = target: Induced myeloid leukemia cell differentiation protein Mcl-1 (Homo sapiens, UniProt Q07820); type: functional
[17] = target: Heat shock protein HSP 90-alpha (Homo sapiens, UniProt P07900); type: functional, organism-based
[18] = cells
[19] = target: Mitogen-activated protein kinase 10 (Homo sapiens, UniProt P53779); test: Dose response biochemical screening assay for inhibitors of c-Jun N-Terminal Kinase 3 (JNK3). [Related pubchem assays: 746 ]
[20] = target: T5, Tyrosine-protein phosphatase non-receptor type 7 (Homo sapiens, UniProt P35236); test: inhibitors of human HePTP phosphatase, […], biochemical, absorbance, leukemia target (AID 521); type: functional
T5 sequence (P35236 whole entry): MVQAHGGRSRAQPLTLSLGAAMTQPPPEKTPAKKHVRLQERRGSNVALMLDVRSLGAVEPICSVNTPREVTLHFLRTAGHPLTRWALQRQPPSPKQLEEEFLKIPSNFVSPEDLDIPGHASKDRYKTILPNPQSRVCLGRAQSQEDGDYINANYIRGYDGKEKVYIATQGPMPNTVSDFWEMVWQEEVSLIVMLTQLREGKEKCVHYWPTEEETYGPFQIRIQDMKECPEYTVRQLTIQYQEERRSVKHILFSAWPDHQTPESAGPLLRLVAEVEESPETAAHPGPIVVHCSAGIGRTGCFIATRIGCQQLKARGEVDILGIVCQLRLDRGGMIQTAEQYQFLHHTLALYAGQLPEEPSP

Luciferin 4-monooxygenase, sequence (P08659 whole entry): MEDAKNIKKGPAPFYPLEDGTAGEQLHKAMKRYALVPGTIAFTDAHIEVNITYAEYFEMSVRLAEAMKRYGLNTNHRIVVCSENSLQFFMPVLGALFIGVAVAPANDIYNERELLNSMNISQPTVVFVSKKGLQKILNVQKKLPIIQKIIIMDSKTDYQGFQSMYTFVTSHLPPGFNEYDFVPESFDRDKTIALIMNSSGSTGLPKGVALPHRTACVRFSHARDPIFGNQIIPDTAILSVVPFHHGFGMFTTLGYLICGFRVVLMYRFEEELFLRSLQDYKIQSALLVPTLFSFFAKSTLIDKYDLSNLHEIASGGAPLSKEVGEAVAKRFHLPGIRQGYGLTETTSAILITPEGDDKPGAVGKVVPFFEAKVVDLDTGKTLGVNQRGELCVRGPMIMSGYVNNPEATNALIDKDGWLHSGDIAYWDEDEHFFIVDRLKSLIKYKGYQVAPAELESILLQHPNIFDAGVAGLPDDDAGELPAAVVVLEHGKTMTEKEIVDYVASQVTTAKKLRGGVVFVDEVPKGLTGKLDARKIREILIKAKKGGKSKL
Mitogen-activated protein kinase 10, sequence (P53779 whole entry): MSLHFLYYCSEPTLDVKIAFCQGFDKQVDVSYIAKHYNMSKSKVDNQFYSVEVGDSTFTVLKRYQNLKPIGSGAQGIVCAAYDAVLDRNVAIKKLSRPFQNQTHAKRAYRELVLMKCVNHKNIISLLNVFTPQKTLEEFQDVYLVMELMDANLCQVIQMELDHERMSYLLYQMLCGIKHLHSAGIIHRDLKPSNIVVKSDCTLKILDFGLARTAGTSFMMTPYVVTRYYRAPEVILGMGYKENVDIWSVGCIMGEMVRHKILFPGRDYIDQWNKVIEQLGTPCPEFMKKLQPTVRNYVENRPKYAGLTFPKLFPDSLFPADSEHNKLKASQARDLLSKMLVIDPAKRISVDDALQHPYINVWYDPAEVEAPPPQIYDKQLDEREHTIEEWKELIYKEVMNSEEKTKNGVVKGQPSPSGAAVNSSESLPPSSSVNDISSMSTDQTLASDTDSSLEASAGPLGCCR
Induced myeloid leukemia cell differentiation protein Mcl-1, sequence (Q07820 whole entry): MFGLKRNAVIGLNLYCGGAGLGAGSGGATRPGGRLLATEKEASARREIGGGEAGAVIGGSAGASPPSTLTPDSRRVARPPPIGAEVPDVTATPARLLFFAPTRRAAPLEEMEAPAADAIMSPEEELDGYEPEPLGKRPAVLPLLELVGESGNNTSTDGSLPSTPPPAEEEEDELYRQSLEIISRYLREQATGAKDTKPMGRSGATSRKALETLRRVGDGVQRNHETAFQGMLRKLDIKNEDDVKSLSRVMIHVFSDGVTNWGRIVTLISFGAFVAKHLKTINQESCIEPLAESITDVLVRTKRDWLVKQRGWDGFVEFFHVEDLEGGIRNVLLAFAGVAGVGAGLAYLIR

With `CC(=O)NC1C(=O)N=C(SCc2ccccc2)NC1=O` (stereo not given) as the compound, how does the IC50 [1] read?
Its IC50 is > 109 µM (inactive).

And the IC50 [2]?
Its IC50 is > 83.3 µM (inactive).

With `CC1(C)CC(=O)C(/C=N/c2ccc3c(c2)OCO3)=C(O)C1` as the compound, how does the IC50 [3] read?
Its IC50 is > 100 µM (active).

For `CCN(CC)c1ccc(/N=C/c2ccc(N(CC)CC)cc2O)cc1`, which EC50 [4] is on record?
Its EC50 is 147 µM (inconclusive).

And the EC50 [5]?
Its EC50 is > 300 µM (not active).

What about the EC50 [6] of the same compound?
Its EC50 is > 300 µM (not active).

And the EC50 [7]?
Its EC50 is > 38 µM (not active).

And the EC50 [8]?
Its EC50 is 3.25 µM (active).

What about the EC50 [9] of the same compound?
Its EC50 is > 60 µM (not active).

And the EC50 [10]?
The EC50 was > 99 µM (inactive).

What about the EC50 [11] of the same compound?
The EC50 was > 99 µM (inactive).

What about the EC50 [12] of the same compound?
Its EC50 is 4.26 µM (active).

What about the CC50 [13] of the same compound?
The CC50 was > 40 µM (active).

For `CC1CCc2nc(NC(=O)C3CCCO3)sc2C1` (stereo not given), which EC50 [14] is on record?
The EC50 was < 0.2 µM (active).

And the EC50 [15]?
The EC50 was > 50 µM (not active).

Which IC50 [1] does the source give for `CCCc1ccc(OCCNC(=O)CC)cc1` here?
The IC50 was > 109 µM (inactive).

And the IC50 [2]?
The IC50 was > 83.4 µM (inactive).

For `CCCCOC(=O)c1ccc(NC(=O)C(=O)NCc2ccccn2)cc1`, which IC50 [3] is on record?
Its IC50 is > 100 µM (active).

For `Cc1c(Cc2ccccc2)c(NCCN(C)C)n2c(nc3ccccc32)c1C#N`, which EC50 [8] is on record?
The EC50 was < 0.1 µM (active).

And the EC50 [9]?
The EC50 was 34.1 µM (active).

What about the IC50 [16] of the same compound?
The IC50 was 3.29 µM (active).

What about the AC50 [17] of the same compound?
Its AC50 is 2.37 µM (active).

And the EC50 [18]?
The EC50 was 0.015 µM (active).

For `CCOC(=O)c1c(-c2ccc(OC)cc2)n[nH]c1N`, which IC50 [19] is on record?
The IC50 was 63.1 µM (not active).

For `COc1ccccc1CNC(=O)Nc1cccs1`, which IC50 [20] is on record?
Its IC50 is > 100 µM (not active).
